The assay deals with MCP-1 Mediated Calcium Flux in THP-1 Cells. In words: MCP-1 mediated calcium flux in THP-1 cells (FLIPR). It is filed as cell-based, human. Particulars: stimulation of THP-1 cells; from dose response curves; read-out: approximate EC50 of hMCP-1 for rise in [Ca2+]i. Here is the method: a) MCP-1 Mediated Calcium Flux in THP-1 Cells
The human monocytic cell line THP-1 was grown in a synthetic cell culture medium RPMI 1640 supplemented with 10% foetal calf serum, 6 mM glutainine and Penicillin-Streptomycin (at 50 IU/ml penicillin, 50 μg streptomycin/ml, Gibco BRL). THP-1 cells were washed in assay buffer comprising of HBSS with Ca^2+ and Mg^2+ (without phenol red) (Gibco BRL)+20 mM HEPES+0.71 mg/ml Propenecid+2 mls/litre CaCl2 1M (BDH)+0.3 mg/ml BSA (Sigma) pH 7.4 and resuspended in the same buffer at a density of 1×10^6 cells/ml. The cells were then loaded with assay buffer+[…] FLUO-4 (molecular probes) for 40 min at 37° C., washed twice in assay buffer, and resuspended at 2×10^5 cells/ml. 100 μl of the cell suspension was added to the wells of black clear-bottomed 96 well plates, to give 2×10^4 cells/well. Cells were pelleted by centrifugation and washed with assay buffer. 100 ul of buffer+50 ul of compound was added to wells and incubated for 20 mins at (37° C.). Fluorescence was recorded using a FLIPR (FLuorometric Imaging Plate Reader—Molecular Devices). Cells were stimulated by addition of hMCP-1 to the wells.
Stimulation of THP-1 cells with hMCP-1 induced a rapid, transient rise in [Ca^2+]i in a specific and dose dependent manner. Dose response curves indicated an approximate EC50 of 4 nm. […]
In general terms: A change in cytosolic calcium serves as a functional read-out for many receptors and channels.

This is an account of results in patent publication US20080039499A1, “Chemical Compounds” (priority 2004, published 2008).

As for “hMCP-1: human Monocyte chemoattractant protein-1, a C—C chemokine and CCR2 ligand, used to stimulate THP-1 cells”, the EC50 (as a rule, the concentration at which the effect is half-maximal) was approximately 4 nM.
